Earlier results, collected in patent US20190223486A1, “CATECHIN ABSORPTION ENHANCER FOR ENHANCING CATECHIN ABSORPTION IN SMALL INTESTINAL EPITHELIAL CELLS” (AMOREPACIFIC CORPORATION, priority 2016, published 2019).

Conditions: in vivo, po

share of a catechin intake absorbed by the intestines: less than 2%
Substance: catechin
